Paper PMC4728423, “Natural and synthetic flavonoid modulation of TRPC5 channels” (British Journal of Pharmacology, 2016)
Where two headings read alike, the source gives them in different places.

Experiments:
human TRPC5 [1] = molecular target: T1, human TRPC5 (Homo sapiens, UniProt Q9UL62); experiment: Whole-cell patch clamp of TRPC5-expressing (Tet+) HEK 293 cells; format: cell-based
T1 construct: expressed in transfected cells
T1 sequence (Q9UL62 1-973): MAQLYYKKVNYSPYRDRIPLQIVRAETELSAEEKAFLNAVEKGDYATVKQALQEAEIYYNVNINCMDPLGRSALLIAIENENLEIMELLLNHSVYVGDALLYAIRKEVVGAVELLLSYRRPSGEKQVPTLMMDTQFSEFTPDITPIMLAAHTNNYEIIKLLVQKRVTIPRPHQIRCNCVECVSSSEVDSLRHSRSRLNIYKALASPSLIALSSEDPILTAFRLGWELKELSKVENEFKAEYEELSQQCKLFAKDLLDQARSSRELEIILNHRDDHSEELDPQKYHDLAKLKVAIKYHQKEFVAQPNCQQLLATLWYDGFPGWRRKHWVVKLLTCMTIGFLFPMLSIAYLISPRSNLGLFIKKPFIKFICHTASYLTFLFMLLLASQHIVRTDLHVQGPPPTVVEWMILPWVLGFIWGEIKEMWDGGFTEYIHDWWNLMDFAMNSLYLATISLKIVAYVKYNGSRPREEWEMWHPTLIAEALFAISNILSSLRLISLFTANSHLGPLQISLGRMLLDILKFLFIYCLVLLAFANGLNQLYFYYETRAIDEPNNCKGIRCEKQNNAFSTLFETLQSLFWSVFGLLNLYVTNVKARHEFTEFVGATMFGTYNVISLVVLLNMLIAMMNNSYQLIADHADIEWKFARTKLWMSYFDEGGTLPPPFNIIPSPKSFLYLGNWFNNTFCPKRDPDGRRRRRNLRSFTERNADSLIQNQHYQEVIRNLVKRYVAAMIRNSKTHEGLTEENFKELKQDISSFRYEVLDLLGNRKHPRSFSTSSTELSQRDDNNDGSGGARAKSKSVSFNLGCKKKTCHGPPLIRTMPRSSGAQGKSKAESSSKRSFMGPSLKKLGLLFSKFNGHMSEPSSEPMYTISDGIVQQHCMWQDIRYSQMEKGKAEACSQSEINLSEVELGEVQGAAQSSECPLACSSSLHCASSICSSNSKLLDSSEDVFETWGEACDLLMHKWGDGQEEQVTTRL

human TRPC5 [2] = molecular target: T1, human TRPC5; experiment: Gd3+-evoked Ca2+ entry in TRPC5-expressing (Tet+) HEK 293 cells; format: cell-based; details: for effect on Gd3+-evoked Ca2+ entry (natural flavonoid screen): XRhod-1; for IC50: TRPC5 (Tet+) HEK 293, 50 μM Gd3+, fluo-4, 30 min pretreatment, read-out: IC50, inhibition of Gd3+-evoked Ca2+ entry
Cav1.2 channels = system: Cav1.2 channels; design: method as in Saponara et al., 2011; details: smooth muscle; ref Saponara et al., 2011; cited from earlier work
BKCa channels = system: BKCa channels; design: method as in Cogolludo et al., 2007; Xu et al., 2008b; details: ref Cogolludo et al., 2007; Xu et al., 2008b; cited from earlier work
[3] = system: GABA-evoked ionic currents; design: method as in Goutman et al., 2003; details: ref Goutman et al., 2003; cited from earlier work
3T3-L1 cells = details: cited from earlier work
human TRPC5 [4] = molecular target: T1, human TRPC5; experiment: Outside-out patch recordings from TRPC5 Tet+ cells; format: cell-based; details: 10 μM compound, 100 μM Gd3+
[5] = molecular target: endogenous TRPC5-containing channels (Mus musculus, UniProt Q9QX29); experiment: Ca2+ entry through endogenous channels in differentiated 3T3-L1 cells; format: cell-based; details: estimated
Experimental: The 3T3‐L1 cell line was obtained from the American Type Culture Collection and cultured in DMEM‐F12 containing 10% fetal calf serum (FCS), 100 U·mL^−1 penicillin and 100 μg·mL^−1 streptomycin. To induce differentiation, cells were grown to confluence, and 2 days post‐confluence, the medium was changed to a medium containing 5 μg·mL^−1 insulin, 0.25 μM dexamethasone and 0.5 mM IBMX with 10% FCS and antibiotics. After 48 h, medium was changed to a maintenance medium containing 5 μg·mL^−1 insulin, 10% FCS and antibiotics. Cells were fed with fresh maintenance medium every 2 days until the day of experiments. For all experiments, cells were differentiated for 12–16 days.
Induced (Tet+) and non‐induced (Tet−) cells were plated in poly‐d‐lysine‐coated black 96‐well plates (Corning, Corning, NY, USA) at a confluence of 90% 24 h before experimentation. […] Cells were washed three times with SBS before measurements were made at room temperature (21 ± 2 °C) on a 96‐well fluorescence plate reader (FlexStation II^384, Molecular Devices, Sunnyvale, CA, USA). […] Readings were made every 10 s. Fura‐2 measurements are shown as the fluorescence (F) ratio or change (Δ) in this ratio. Fluo‐4 and XRhod‐1 measurements are shown as absolute fluorescence in arbitrary units or changes in this fluorescence (ΔF). […]

Sequence of endogenous TRPC5-containing channels (Q9QX29 whole entry): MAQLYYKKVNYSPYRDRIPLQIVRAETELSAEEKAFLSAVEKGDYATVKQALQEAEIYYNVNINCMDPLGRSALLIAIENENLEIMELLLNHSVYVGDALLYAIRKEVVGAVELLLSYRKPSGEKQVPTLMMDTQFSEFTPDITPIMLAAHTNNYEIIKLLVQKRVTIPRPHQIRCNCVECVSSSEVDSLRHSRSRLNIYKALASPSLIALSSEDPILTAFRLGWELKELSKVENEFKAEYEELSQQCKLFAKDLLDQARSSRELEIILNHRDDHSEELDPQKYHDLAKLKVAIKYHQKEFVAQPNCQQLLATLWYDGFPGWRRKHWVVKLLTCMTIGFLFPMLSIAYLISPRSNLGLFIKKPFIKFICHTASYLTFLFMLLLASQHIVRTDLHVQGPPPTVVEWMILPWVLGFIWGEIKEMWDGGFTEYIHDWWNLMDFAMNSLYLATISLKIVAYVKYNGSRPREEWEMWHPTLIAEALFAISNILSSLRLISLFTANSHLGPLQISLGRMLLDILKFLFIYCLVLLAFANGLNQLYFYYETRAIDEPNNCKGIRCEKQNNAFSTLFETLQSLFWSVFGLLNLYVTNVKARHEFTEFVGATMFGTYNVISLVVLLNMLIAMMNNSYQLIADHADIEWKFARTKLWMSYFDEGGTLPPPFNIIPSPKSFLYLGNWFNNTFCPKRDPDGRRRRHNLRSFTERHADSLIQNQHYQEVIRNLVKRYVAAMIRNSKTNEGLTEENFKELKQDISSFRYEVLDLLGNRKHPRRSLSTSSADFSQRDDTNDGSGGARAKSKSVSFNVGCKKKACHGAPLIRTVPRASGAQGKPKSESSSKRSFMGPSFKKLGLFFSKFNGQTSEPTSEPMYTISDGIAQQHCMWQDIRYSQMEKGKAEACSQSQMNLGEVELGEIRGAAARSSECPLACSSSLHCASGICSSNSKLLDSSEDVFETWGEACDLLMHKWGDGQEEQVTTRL
Sequence of endogenous TRPC5-containing channels (Q61056 whole entry partner): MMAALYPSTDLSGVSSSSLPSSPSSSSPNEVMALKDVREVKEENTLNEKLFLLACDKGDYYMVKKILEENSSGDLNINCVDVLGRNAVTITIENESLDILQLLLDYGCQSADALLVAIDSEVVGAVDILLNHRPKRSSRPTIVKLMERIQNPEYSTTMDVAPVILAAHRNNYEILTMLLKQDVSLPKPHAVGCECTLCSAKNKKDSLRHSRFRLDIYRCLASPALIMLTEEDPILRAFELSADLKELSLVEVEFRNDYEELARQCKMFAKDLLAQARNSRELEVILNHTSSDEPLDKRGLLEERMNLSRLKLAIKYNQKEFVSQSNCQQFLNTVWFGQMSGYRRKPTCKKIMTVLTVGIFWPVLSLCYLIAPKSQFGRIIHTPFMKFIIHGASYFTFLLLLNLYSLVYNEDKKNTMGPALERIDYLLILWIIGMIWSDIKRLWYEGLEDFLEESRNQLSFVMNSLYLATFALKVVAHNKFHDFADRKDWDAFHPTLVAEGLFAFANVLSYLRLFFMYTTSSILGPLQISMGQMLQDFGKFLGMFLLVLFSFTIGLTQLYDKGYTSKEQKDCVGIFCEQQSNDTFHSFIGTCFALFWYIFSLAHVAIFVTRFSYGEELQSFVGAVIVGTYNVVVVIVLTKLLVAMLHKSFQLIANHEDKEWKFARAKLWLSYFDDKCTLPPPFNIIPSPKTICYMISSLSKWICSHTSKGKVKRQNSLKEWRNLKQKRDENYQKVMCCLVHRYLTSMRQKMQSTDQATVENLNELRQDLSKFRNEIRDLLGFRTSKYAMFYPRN

SMILES | IC50 (human TRPC5 [2]) | effect on Gd3+-evoked Ca2+ entry (natural flavonoid screen) (human TRPC5 [2]; 10 μM, 50 μM Gd3+) | effect on Cav1.2 channels (Cav1.2 channels) | effect on BKCa channels (BKCa channels) | further results
NCCOB(c1ccccc1)c1ccccc1 [2‐aminoethoxydiphenylborate] |  |  |  |  | effect on TRPC5 whole-cell current after galangin (human TRPC5 [1]; 75 μM, applied after Gd3+ and galangin): further inhibited the current
O=c1c(O)c(-c2ccc(O)c(O)c2)oc2cc(O)cc(O)c12 [Quercetin] | 6.5 µM | inhibitors | stimulators | stimulated | effect on GABA-evoked ionic currents [3]: inhibited; effect on 3T3-L1 cell growth and apoptosis (3T3-L1 cells; ref Hsu and Yen, 2006): inhibited
O=c1cc(-c2ccc(O)c(O)c2)oc2cc(O)cc(O)c12 [Luteolin] | > 10 µM |  |  |  | 

Continued, in another order:

IC50 (human TRPC5 [2]) | SMILES | effect on Gd3+-evoked Ca2+ entry (natural flavonoid screen) (human TRPC5 [2]; 10 μM, 50 μM Gd3+) | effect on Cav1.2 channels (Cav1.2 channels) | effect on BKCa channels (BKCa channels) | further results
0.45 µM | O=c1c(O)c(-c2ccccc2)oc2cc(O)cc(O)c12 [Galangin] |  | inhibited |  | effect on Gd3+-evoked Ca2+ signal (natural product screen) (human TRPC5 [2]; 10 μM, 30 min pre-incubation, 50 μM Gd3+, fluo-4): inhibitory; effect on Gd3+-evoked TRPC5-mediated whole-cell current (human TRPC5 [1]; 10 μM compound, 30 μM Gd3+, Ca2+ or Ba2+ in bath): effective; time to effect on whole-cell current (human TRPC5 [1]; 10 μM, 30 μM Gd3+): ≤ 2 min; effect on TRPC5 current stimulated by S1P (human TRPC5 [1]; whole-cell, 10 μM compound, 5 μM S1P): effective; reversibility on washout (human TRPC5 [1]; whole-cell, 10 μM, Gd3+-evoked current): not readily reversed on washout; effect on TRPC5-mediated current in excised outside-out patches (human TRPC5 [4]): inhibited; IC50 ([5]; fluo-4, 20 μM La3+, read-out: IC50 for inhibition of La3+-evoked Ca2+ entry): 6.05 µM; IC50 ([5]; fluo-4, constitutive activity, read-out: IC50 for inhibition of basal Ca2+): 1.85 µM; effect in 3T3-L1 cells / on adipocyte differentiation (3T3-L1 cells; ref Jung et al., 2012): anti‐adipogenic effects
3.9 µM | O=c1c(O)c(-c2ccc(O)cc2)oc2cc(O)cc(O)c12 [Kaempferol] | inhibitors | stimulators | stimulated | 
> 10 µM | O=c1c(O)c(-c2cc(O)c(O)c(O)c2)oc2cc(O)cc(O)c12 [Myricetin] |  | stimulators |  | 
